The source of these data is patent US20260250320A1, “LIPIDATED PEPTIDE INHIBITORS OF INTERLEUKIN-23 RECEPTOR” (Janssen Pharmaceutica NV, priority 2023, published 2026).

The term IC50 denotes the concentration at which inhibition is half-maximal. A lower IC50 goes with greater potency.

*1 amine or outer side, *2 acyl side, *3 side chain or, on linkers, in order; H or OH if unused. Where a SMILES comes first, the peptide text is derived from it. Bridges are numbered along the chain shown (N, C = ends). Side-chain parts run from the residue outwards. [ ]: non-standard residue; d: D form. The star is where a group is joined. X5 = O=C(O)CCCCCCCCCCCCCCCCC(=O)N[C@@H](CCC(=O)NC(=O)*)C(=O)O; Trp(7-Me) = Cc1cccc2c(C[C@H](N)C(=O)O)c[nH]c12; C18 diacid = O=C(O)CCCCCCCCCCCCCCCCC(=O)*; γGlu = O=C(O)[C@H](CCC(=O)[*:2])N[*:1]; 2Nal = N[C@@H](Cc1ccc2ccccc2c1)C(=O)O; AEF = NCCOc1ccc(C[C@H](N)C(=O)O)cc1; X2 = C[N+](C)(C)C[C@@H](CC(=O)O)N*; 3Pal = N[C@@H](Cc1cccnc1)C(=O)O; Pen = CC(C)(S)[C@H](N)C(=O)O; Suc = O=C(CCC(=O)[*:2])[*:1]; Thp = NC1(C(=O)O)CCOCC1; AEEA = NCCOCCOCC(=O)O; Sar = CNCC(=O)O

In one assay the target is T1, IL-23R (Homo sapiens, UniProt Q5VWK5).
T1 construct: HEK293 cells containing IL-23R, IL-12Rβ1 and a firefly luciferase reporter gene driven by a STAT-inducible promoter (Promega); host or cells: HEK293
T1 sequence (Q5VWK5 24-629): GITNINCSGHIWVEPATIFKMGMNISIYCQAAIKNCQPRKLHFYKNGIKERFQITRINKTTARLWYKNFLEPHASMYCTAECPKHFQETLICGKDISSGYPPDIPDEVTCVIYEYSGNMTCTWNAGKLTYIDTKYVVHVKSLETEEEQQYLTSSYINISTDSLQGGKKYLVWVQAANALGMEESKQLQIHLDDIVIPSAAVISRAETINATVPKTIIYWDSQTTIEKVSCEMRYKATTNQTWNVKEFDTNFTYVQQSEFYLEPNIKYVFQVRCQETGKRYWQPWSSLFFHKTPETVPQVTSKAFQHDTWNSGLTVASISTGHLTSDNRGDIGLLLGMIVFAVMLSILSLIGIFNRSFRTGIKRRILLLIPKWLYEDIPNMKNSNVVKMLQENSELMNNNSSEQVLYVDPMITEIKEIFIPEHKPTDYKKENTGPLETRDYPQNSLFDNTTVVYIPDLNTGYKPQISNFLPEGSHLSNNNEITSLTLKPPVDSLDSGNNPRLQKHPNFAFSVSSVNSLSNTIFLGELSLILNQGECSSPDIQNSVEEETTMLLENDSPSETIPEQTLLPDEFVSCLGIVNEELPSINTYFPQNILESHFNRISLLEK
The assay is described as follows: IL23R Reporter Assay. It is filed as cell-based. The note with it: HEK293 cells containing IL-23R, IL-12Rβ1 and STAT-inducible firefly luciferase reporter; 10 ng/mL IL-23 (EC90); 5 h. An outline of the steps: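 IC50 values were fitted with a 4-parameter Hill equation to luciferase signal, scaled between IL-23-only wells (0% inhibition) and 30 μM reference inhibitor (100%). The readout was a STAT-inducible reporter in IL-23R/IL-12Rβ1 HEK293 cells, stimulated with added 10 ng/mL IL-23 (EC90) for 5 h at 37° C and developed with BioGlo.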
(A reporter such as luciferase makes a cellular process visible.)

Assay [1] has as its system IL-23-stimulated phosphorylated STAT3 in peripheral blood mononuclear cells (PBMCs). Kind of assay: PBMC pSTAT3 Assay. The format is cell-based. The note with it: PBMCs from healthy donors; 30 min preincubation with peptide; IL-23 5 ng/mL for 30 min; phospho-STAT3 by MSD. As to the method:
Cryopreserved peripheral blood mononuclear cells (PBMCs) from healthy donors were thawed and washed twice in ImmunoCult-XF T cell expansion medium (XF-TCEM) supplemented with CTL anti-aggregate wash. The cells were counted, resuspended at 2-6×10^5 cells per mL XF-TCEM supplemented with penicillin/streptomycin and 100 ng/mL […] (BioLegend, 579404), and cultured in tissue culture flasks coated with anti-CD3 (eBioscience, 16-0037-85 or BD Pharmingen, 555329) at 37° C. in 5% CO2. On day 4 of culture, PBMCs were collected, washed twice in RPMI-1640 supplemented with 0.1% BSA (RPMI-BSA), and incubated in RPMI-BSA in upright tissue culture flasks for ~4 hours at 37° C. in 5% CO2. Following this 'starvation,' a total of 6×10^4 cells in 30 μL RPMI-BSA was transferred into each well of a 384-well plate pre-spotted with peptide or DMSO. The cells were incubated for 30 minutes prior to the addition of […] at a final concentration of 5 ng/mL. The cells were stimulated with cytokine for 30 minutes at 37° C. in 5% CO2, transferred onto ice for 10 minutes, and lysed. Cell lysates were stored at -80° C. until phosphorylated STAT3 was measured using the phospho-STAT panel kit (Meso Scale Discovery, […]). Results are provided below. • A: IC50<0.5 nM; • B: 0.5 nM≤IC50<5 nM; • C: 5 nM≤IC50; • ND: Not determined

For `CC(=O)NCCCC[C@@H]1NC(=O)[C@H](Cc2c[nH]c3c(C)cccc23)NC(=O)[C@H]([C@@H](C)O)NC(=O)[C@H](CCCCNC(=O)CCC(=O)N[C@H](CC(=O)O)C[N+](C)(C)C)NC(=O)[C@@H](NC(=O)[C@@H](CCCNC(=N)N)NC(C)=O)C(C)(C)SSC(C)(C)[C@@H](C(=O)N[C@@H](Cc2ccc(OCCNC(=O)COCCOCCNC(=O)COCCOCCNC(=O)CC[C@H](NC(=O)CCCCCCCCCCCCCCCCC(=O)O)C(=O)O)cc2)C(=O)N[C@@H](Cc2ccc3ccccc3c2)C(=O)NC2(C(=O)N[C@@H](CCC(=O)O)C(=O)N[C@@H](CC(N)=O)C(=O)N[C@@H](Cc3cccnc3)C(=O)N(C)CC(N)=O)CCOCC2)NC1=O` [compound 10, MeCO-r-Pen(3)-K(d)-T-7MeW-K(Ac)-Pen(3)-AEF(PEG2PEG2gEC18OH)-2Nal-THP-E-N-3Pya-Sar-CONH2] (Ac-[dR][Pen]K([Suc-X2])T[Trp(7-Me)]K(Ac)[Pen][AEF]([AEEA-AEEA-γGlu-C18 diacid])[2Nal][Thp]EN[3Pal][Sar]-NH2; disulfide 2-7), the concentration for half-maximal inhibition (IC50) was under 50 nM against IL-23R and 0.5 to 5 nM in assay [1].
Turning to `CC(=O)NCCCC[C@@H]1NC(=O)[C@H](Cc2c[nH]c3c(C)cccc23)NC(=O)[C@H]([C@@H](C)O)NC(=O)[C@H](CC(N)=O)NC(=O)[C@@H](NC(=O)[C@@H](CCCNC(=N)N)NC(=O)CCC(=O)N[C@H](CC(=O)O)C[N+](C)(C)C)C(C)(C)SSC(C)(C)[C@@H](C(=O)N[C@@H](Cc2ccc(OCCNC(=O)COCCOCCNC(=O)COCCOCCNC(=O)NC(=O)CC[C@H](NC(=O)CCCCCCCCCCCCCCCCC(=O)O)C(=O)O)cc2)C(=O)N[C@@H](Cc2ccc3ccccc3c2)C(=O)NC2(C(=O)N[C@@H](CCC(=O)O)C(=O)N[C@@H](CC(N)=O)C(=O)N[C@@H](Cc3cccnc3)C(=O)N(C)CC(N)=O)CCOCC2)NC1=O` [compound 11, succiniccarn-r-Pen(3)-N-T-7MeW-K(Ac)-Pen(3)-AEF(PEG2PEG2gEC18OH)-2Nal-THP-E-N-3Pya-Sar-CONH2] ({X2-Suc}-[dR][Pen]NT[Trp(7-Me)]K(Ac)[Pen][AEF]([AEEA-AEEA-X5])[2Nal][Thp]EN[3Pal][Sar]-NH2; disulfide 2-7), the IC50 on IL-23R is 50 to 500 nM; in assay [1] it was 0.5 to 5 nM.
Taken in the same sequence, the figures for `CC(=O)NCCCC[C@@H]1NC(=O)[C@H](Cc2c[nH]c3c(C)cccc23)NC(=O)[C@H]([C@@H](C)O)NC(=O)[C@H](CCCCNC(=O)COCCOCCNC(=O)COCCOCCNC(=O)CC[C@H](NC(=O)CCCCCCCCCCCCCCCCC(=O)O)C(=O)O)NC(=O)[C@@H](NC(=O)[C@@H](CCCNC(=N)N)NC(C)=O)C(C)(C)SSC(C)(C)[C@@H](C(=O)N[C@@H](Cc2ccc(OCCN)cc2)C(=O)N[C@@H](Cc2ccc3ccccc3c2)C(=O)NC2(C(=O)N[C@@H](CCCCNC(=O)CCC(=O)N[C@H](CC(=O)O)C[N+](C)(C)C)C(=O)N[C@@H](CC(N)=O)C(=O)N[C@@H](Cc3cccnc3)C(=O)N(C)CC(N)=O)CCOCC2)NC1=O` [compound 12, MeCO-r-Pen(3)-K(PEG2PEG2gEC18OH)-T-7MeW-K(Ac)-Pen(3)-AEF-2Nal-THP-K(d)-N-3Pya-Sar-CONH2] (Ac-[dR][Pen]K([AEEA-AEEA-γGlu-C18 diacid])T[Trp(7-Me)]K(Ac)[Pen][AEF][2Nal][Thp]K([Suc-X2])N[3Pal][Sar]-NH2; disulfide 2-7) were under 50 nM and 0.5 to 5 nM.
